In patent publication US20080279775A1, “Benztropinamine Analogs as Dopamine Uptake Inhibitors” (priority 2005, published 2008):
Structures can show the parent of a compound that is named as a salt. Where two headings read alike, the source gives them in different places.

How the values were obtained:
[1] = tested on: mice; assay: Locomotor stimulant effects (activity counts per minute); assay type: in vivo; details: injected, at the most effective dose, FIG. 2
From the text: In contrast, 2m produced much more modest increases in activity of around 100 counts per min.

[2] = biological target: T1, DAT (Rattus norvegicus, UniProt P23977); assay: Dopamine transporter binding assay, displacement of [3H]WIN 35,428; details: for Ki: rat caudate-putamen membranes, read-out: DAT [3H]WIN 35,428 Ki ± SEM; for Reduction of binding affinity at the DAT compared to 2a: lower affinity than 2a
T1 construct: their brains removed to an ice-cooled dish for dissection of the caudate putamen; from tissue; host or cells: rat caudate putamen membranes (fresh homogenates)

[3] = biological target: T2, SERT (Rattus norvegicus, UniProt P31652); assay: [3H]Citalopram binding assay; details: for Binding selectivity SERT/DAT: Ki ratio
T2 construct: Membranes from frozen rat midbrain were homogenized; from tissue; host or cells: frozen rat midbrain membranes
Procedure: (§1) In order to understand the neurochemical and behavioral properties of the compounds of the present invention, exemplary benztropinamine analogs were evaluated for displacement of [^3H]WIN 35,428 (2β-carbomethoxy-3β-(4-fluorophenyl)tropane) binding to the DAT in rat caudate-putamen. These benztropinamine analogs were also evaluated for displacement of radiolabeled ligand binding at the serotonin (SERT) and norepinephrine (NET) transporters as well as the muscarinic m1 receptor (M1), Table 1, infra. The NET over DAT selectivity refers to the Ki ratio. When the Ki ratio is greater than 1, the compound is DAT selective. The DAT selectivities of the analogs over these binding sites are depicted in Table 2.
[^3H]Citalopram Binding Assay. Membranes from frozen rat midbrain were homogenized in 20 volumes (w/v) of 50 mM Tris containing 120 mM NaCl and 5 mM KCl (pH 7.4 at 25° C.), using a Brinkman Polytron (at setting 6 for 20 sec). The tissue was centrifuged at 20,000×g for 10 min at 4° C. The resulting pellet was resuspended in buffer and recentrifuged. The final pellet was resuspended in cold buffer to a concentration of 15 mg/ml (original wet weight). Ligand binding experiments were conducted in assay tubes containing 0.5 ml of buffer, 1.4 nM [^3H]citalopram (New England Nuclear, Boston Mass.), and 1.5 mg midbrain tissue. The reaction was started with the addition of the tissue and the tubes were incubated for 60 min at 25° C. (room temperature). The incubation was terminated by rapid filtration through Whatman GF/B filters (presoaked in 0.3% polyethylenimine in water) using a Brandel Cell Harvester (Brandel Instruments Gaithersburg, Md.). The filters were washed twice with 5 ml cold buffer, transferred to scintillation vials to which Beckman Ready Safe was added. Nonspecific binding was determined using 10 μM fluoxetine (RBI, Natick, Mass.). Data were analyzed using GraphPad Prism software (San Diego, Calif.).

[4] = tested on: NET; assay type: binding, rat; details: for Binding selectivity NET/DAT: Ki ratio
Procedure: as §1
(§2) [^3H]Nisoxetine Binding Assay. Membranes from frozen frontal cortex dissected from male Sprague-Dawley rats (Taconic Labs, Germantown, N.Y.) were homogenized in 20 volumes (w/v) of 50 mM Tris containing 120 mM NaCl and 5 mM KCl (pH 7.4 at 25° C.), using a Brinkman Polytron (at setting 6 for 20 sec). The tissue was centrifuged at 50,000×g for 10 min at 4° C. The resulting pellet was resuspended in buffer and recentrifuged. The final pellet was resuspended in cold buffer to a concentration of 80 mg/ml (original wet weight). Ligand binding experiments were conducted in assay tubes containing 0.5 ml buffer, 0.5 nM [3H]nisoxetine (New England Nuclear, Boston, Mass.), and 8 mg frontal cortex tissue. The reaction was started with the addition of the tissue and the tubes were incubated for 60 min at 0-4° C. The incubation was terminated by rapid filtration through Whatman GF/B filters, presoaked in 0.05% polyethylenimine, using a Brandel Cell Harvester (Brandel Instruments Gaithersburg, Md.). The filters were washed twice with 5 ml cold buffer, transferred to scintillation vials to which Beckman Ready Safe was added. Nonspecific binding was determined using 1 μM desipramine. Data were analyzed using GraphPad Prism software (San Diego, Calif.).

[5] = biological target: T3, muscarinic M1 receptor (Rattus norvegicus, UniProt P08482); assay: [3H]Pirenzepine binding assay; details: for Binding selectivity M1/DAT: Ki ratio
T3 construct: Membranes from frozen rat brains excluding cerebellum were thawed in ice-cold buffer; from tissue; host or cells: frozen rat brain (excluding cerebellum) membranes
T3 sequence (P08482 1-460): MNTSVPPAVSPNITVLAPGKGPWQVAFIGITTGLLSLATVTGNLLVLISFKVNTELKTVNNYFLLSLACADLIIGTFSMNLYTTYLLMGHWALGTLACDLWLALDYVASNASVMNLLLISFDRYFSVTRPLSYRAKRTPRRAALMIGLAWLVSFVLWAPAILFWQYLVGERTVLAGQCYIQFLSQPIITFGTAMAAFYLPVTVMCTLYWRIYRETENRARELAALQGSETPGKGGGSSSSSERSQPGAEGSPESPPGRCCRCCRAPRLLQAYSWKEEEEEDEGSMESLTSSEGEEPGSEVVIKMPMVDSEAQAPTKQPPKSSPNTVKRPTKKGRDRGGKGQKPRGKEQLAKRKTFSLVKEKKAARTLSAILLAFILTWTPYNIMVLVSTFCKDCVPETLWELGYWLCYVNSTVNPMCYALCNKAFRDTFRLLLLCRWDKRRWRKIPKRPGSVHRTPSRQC
Procedure: as §1, with “When the Ki ratio is greater than 1, the compound is DAT selective.” left out
[…] Binding Assay. Membranes from frozen rat brains excluding cerebellum were thawed in ice-cold buffer (10 mM Tris-HCl, 320 mM sucrose, pH 7.4) and homogenized with a Brinkman polytron in a volume of 10 ml/gm of tissue. The homogenate was centrifuged at 1,000×g for 10 min at 4° C. The resulting supernatant was then centrifuged at 10,000×g for 20 min at 4° C. The resulting pellet was resuspended in a volume of 200 mg/ml in 10 mM Tris buffer (pH 7.4). Ligand binding assays were conducted in tubes containing 0.5 ml of buffer (10 mM Tris-HCl, 5 mM MgCl2), 3 nM [^3H]pirenzepine (New England Nuclear, Boston, Mass.), and 20 mg of brain tissue. The reaction was started with the addition of the tissue and the tubes were incubated for 60 min in a 37° C. water bath. The incubation was terminated by the addition of 5 ml of ice-cold buffer (10 mM Tris-HCl, pH 7.4) and rapid filtration through Whatman GF/B glass fiber filter paper (presoaked in 0.5% polyethylenimine) using a Brandel Cell Harvester (Brandel Instruments, Gaithersburg, Md.). The filters were washed twice with 5 ml cold buffer, and transferred to scintillation vials to which absolute ethanol and Beckman Ready Safe was added. Quinuclidinyl benzilate (QNB), 100 μM final concentration, was used to determine non-specific binding. Data were analyzed by using GraphPad Prism software (San Diego, Calif.).

[6] = biological target: NET (Rattus norvegicus, UniProt Q63380); assay type: binding; details: read-out: NET [3H]nisoxetine Ki ± SEM; rat frontal cortex membranes
Procedure: as §1, §2

[7] = rat midbrain membranes, read-out: SERT [3H]citalopram Ki ± SEM
[8] = rat brain membranes excluding cerebellum, read-out: M1 [3H]pirenzepine Ki ± SEM

T1 sequence (P23977 whole entry): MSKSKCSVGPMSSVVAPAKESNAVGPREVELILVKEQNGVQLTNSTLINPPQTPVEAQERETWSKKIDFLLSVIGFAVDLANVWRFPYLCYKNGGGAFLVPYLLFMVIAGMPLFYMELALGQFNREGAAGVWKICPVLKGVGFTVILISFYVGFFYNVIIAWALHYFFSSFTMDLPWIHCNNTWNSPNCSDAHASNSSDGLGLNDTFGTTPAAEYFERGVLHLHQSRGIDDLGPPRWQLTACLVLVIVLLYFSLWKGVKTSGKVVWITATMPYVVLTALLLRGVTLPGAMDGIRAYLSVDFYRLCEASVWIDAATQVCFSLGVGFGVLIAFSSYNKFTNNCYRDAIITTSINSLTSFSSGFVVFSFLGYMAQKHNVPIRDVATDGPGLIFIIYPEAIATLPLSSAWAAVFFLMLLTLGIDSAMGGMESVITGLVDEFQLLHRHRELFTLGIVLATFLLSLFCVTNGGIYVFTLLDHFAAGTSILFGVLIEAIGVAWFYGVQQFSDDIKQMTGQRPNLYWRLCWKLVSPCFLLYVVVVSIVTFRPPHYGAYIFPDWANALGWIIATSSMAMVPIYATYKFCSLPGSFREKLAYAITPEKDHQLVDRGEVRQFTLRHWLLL
T2 sequence (P31652 whole entry): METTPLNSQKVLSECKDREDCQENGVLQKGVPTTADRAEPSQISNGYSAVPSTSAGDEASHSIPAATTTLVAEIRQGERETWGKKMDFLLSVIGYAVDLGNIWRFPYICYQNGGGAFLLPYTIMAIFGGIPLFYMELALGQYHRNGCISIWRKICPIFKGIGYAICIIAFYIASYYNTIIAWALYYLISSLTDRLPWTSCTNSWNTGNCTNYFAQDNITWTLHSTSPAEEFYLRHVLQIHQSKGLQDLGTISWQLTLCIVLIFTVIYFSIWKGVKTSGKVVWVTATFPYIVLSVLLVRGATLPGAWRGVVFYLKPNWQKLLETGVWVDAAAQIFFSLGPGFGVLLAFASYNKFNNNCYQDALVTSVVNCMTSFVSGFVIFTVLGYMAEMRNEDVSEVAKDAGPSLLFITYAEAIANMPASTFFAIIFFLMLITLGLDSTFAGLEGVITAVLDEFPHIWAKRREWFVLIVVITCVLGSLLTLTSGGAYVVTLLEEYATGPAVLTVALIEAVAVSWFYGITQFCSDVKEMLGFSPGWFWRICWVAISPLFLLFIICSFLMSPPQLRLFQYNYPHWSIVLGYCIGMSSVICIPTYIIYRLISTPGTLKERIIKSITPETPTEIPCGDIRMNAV
NET (Rattus norvegicus, UniProt Q63380), sequence (Q63380 1-617): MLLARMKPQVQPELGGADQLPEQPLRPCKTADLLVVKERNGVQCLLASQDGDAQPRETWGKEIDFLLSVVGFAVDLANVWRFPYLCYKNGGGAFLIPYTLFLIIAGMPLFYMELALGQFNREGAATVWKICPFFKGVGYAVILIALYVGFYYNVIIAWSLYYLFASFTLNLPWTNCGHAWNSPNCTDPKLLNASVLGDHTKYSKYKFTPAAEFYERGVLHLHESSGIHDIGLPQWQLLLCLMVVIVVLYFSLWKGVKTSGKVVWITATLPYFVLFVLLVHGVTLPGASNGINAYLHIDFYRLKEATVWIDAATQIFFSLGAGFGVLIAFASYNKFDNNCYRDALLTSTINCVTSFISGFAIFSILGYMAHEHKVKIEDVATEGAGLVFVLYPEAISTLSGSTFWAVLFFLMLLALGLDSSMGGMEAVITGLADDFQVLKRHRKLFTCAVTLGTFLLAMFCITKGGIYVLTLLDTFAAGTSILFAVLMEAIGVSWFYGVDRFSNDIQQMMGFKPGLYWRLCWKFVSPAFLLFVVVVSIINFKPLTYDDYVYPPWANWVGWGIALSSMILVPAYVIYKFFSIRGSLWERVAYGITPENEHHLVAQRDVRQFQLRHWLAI

## CN(C(c1ccc(F)cc1)c1ccc(F)cc1)[C@H]1C[C@H]2CC[C@@H](C1)N2C (as salt: oxalate) [Compound 2c]
other
  melting point: 227 to 228 °C

## Fc1ccc(C(N[C@H]2C[C@H]3CC[C@@H](C2)N3)c2ccc(F)cc2)cc1 (as salt: oxalate) [Compound 2g]
other
  melting point: 138 to 140 °C

## Fc1ccc(C(N[C@H]2C[C@H]3CC[C@@H](C2)N3CCCCc2ccccc2)c2ccc(F)cc2)cc1 (as salt: oxalate) [Compound 2j]
other
  melting point: 194 to 196 °C

## Fc1ccc(C(N[C@H]2C[C@H]3CC[C@@H](C2)N3CCc2c[nH]c3ccccc23)c2ccc(F)cc2)cc1 (as salt: oxalate) [Compound 2l]
other
  melting point: 178 to 180 °C

## COC(=O)[C@H]1[C@@H](OC(=O)c2ccccc2)C[C@@H]2CC[C@H]1N2C [Cocaine, cocaine, reference compound]
[1]
  Locomotor activity: ~400 counts per min

## CN1[C@@H]2CC[C@H]1C[C@@H](NC(c1ccc(F)cc1)c1ccc(F)cc1)C2 [Compound 2a]
[2]
  Ki: 0.0113 ± 0.00161 µM
[3]
  Binding selectivity SERT/DAT: 769
[3]; [7]
  Ki: 8.68 ± 0.436 µM
[4]
  Binding selectivity NET/DAT: 160
[5]
  Binding selectivity M1/DAT: 0.7
[5]; [8]
  Ki: 0.00781 ± 0.00117 µM

## CN1[C@@H]2CC[C@H]1C[C@H](NC(c1ccc(F)cc1)c1ccc(F)cc1)C2 [Compound 2b]
[2]
  Reduction of binding affinity at the DAT compared to 2a: 58 fold
  Ki: 0.661 ± 0.035 µM
[3]
  Ki: 48.5 ± 6.37 µM
  Binding selectivity SERT/DAT: 73
[6]
  Ki: 15.2 ± 1.23 µM
[4]
  Binding selectivity NET/DAT: 23
[5]
  Ki: 0.0594 ± 0.0073 µM
  Binding selectivity M1/DAT: 0.1

## CN1[C@@H]2CC[C@H]1C[C@@H](NC(c1ccc(Cl)cc1)c1ccc(Cl)cc1)C2 [Compound 2d]
[2]
  Reduction of binding affinity at the DAT compared to 2a: around 3 fold
[3]; [7]
  Ki: 4.18 ± 0.623 µM
[5]; [8]
  Ki: 0.05 ± 0.0071 µM

## CN1[C@@H]2CC[C@H]1C[C@@H](NC(c1ccccc1)c1ccc(Cl)cc1)C2 (stereo partly shown) [Compound 2e]
[2]
  Reduction of binding affinity at the DAT compared to 2a: around 3 fold
  Ki: 0.0365 ± 0.00066 µM
[3]
  Binding selectivity SERT/DAT: 373
[3]; [7]
  Ki: 13.6 ± 1.04 µM
[4]
  Binding selectivity NET/DAT: 87
[5]
  Binding selectivity M1/DAT: 0.3
[5]; [8]
  Ki: 0.0093 ± 0.00027 µM

## CN1[C@@H]2CC[C@H]1C[C@@H](NC(c1ccc(Cl)c(Cl)c1)c1ccc(Cl)c(Cl)c1)C2 [Compound 2f]
[2]; higher affinity than 2a
  Higher binding affinity at the DAT compared to 2a: 2 fold
[2]
  Ki: 0.00535 ± 0.00025 µM
[3]
  Binding selectivity SERT/DAT: 563
[3]; [7]
  Ki: 3.01 ± 0.332 µM
[4]
  Binding selectivity NET/DAT: 48
[4]; compared to 2a
  Reduction of NET over DAT selectivity compared to 2a: 3 fold
[5]
  Binding selectivity M1/DAT: 3
[5]; [8]
  Ki: 0.0178 ± 0.00227 µM

## Fc1ccc(C(N[C@H]2C[C@H]3CC[C@@H](C2)N3)c2ccc(F)cc2)cc1 [Compound 2g]
[2]
  Ki: 0.00845 ± 0.00023 µM
[3]
  Binding selectivity SERT/DAT: 491
[3]; [7]
  Ki: 4.15 ± 0.368 µM
[4]
  Binding selectivity NET/DAT: 118
[5]
  Binding selectivity M1/DAT: 18
[5]; [8]
  Ki: 0.154 ± 0.0196 µM

## C=CCN1[C@@H]2CC[C@H]1C[C@@H](NC(c1ccc(F)cc1)c1ccc(F)cc1)C2 [Compound 2h]
[2]
  Ki: 0.0268 ± 0.00343 µM
[3]
  Binding selectivity SERT/DAT: 146
[3]; [7]
  Ki: 3.92 ± 0.581 µM
[4]
  Binding selectivity NET/DAT: 208
[5]
  Binding selectivity M1/DAT: 5
[5]; [8]
  Ki: 0.13 ± 0.0105 µM

## CCCCN1[C@@H]2CC[C@H]1C[C@@H](NC(c1ccc(F)cc1)c1ccc(F)cc1)C2 [Compound 2i]
[2]
  Ki: 0.0215 ± 0.00231 µM
[3]
  Binding selectivity SERT/DAT: 123
[3]; [7]
  Ki: 2.64 ± 0.0276 µM
[4]
  Binding selectivity NET/DAT: 136
[5]
  Binding selectivity M1/DAT: 21
[5]; [8]
  Ki: 0.454 ± 0.0367 µM

## Fc1ccc(C(N[C@H]2C[C@H]3CC[C@@H](C2)N3CCCCc2ccccc2)c2ccc(F)cc2)cc1 [Compound 2j]
[2]
  Ki: 0.0117 ± 0.00039 µM
[3]
  Binding selectivity SERT/DAT: 43
[3]; [7]
  Ki: 0.502 ± 0.0681 µM
[4]
  Binding selectivity NET/DAT: 139
[5]
  Binding selectivity M1/DAT: 37
[5]; [8]
  Ki: 0.438 ± 0.0562 µM

## NCCN1[C@@H]2CC[C@H]1C[C@@H](NC(c1ccc(F)cc1)c1ccc(F)cc1)C2 [Compound 2k]
[2]
  Ki: 0.0125 ± 0.00173 µM
[5]; lower affinity than 2a
  Lower binding affinity at the M1 receptor compared to 2a: 170 fold
[5]; [8]
  Ki: 2.11 ± 0.119 µM

## Fc1ccc(C(N[C@H]2C[C@H]3CC[C@@H](C2)N3CCc2c[nH]c3ccccc23)c2ccc(F)cc2)cc1 [Compound 2l]
[2]
  Reduction of binding affinity at the DAT compared to 2a: 6 fold
[3]; [7]
  Ki: 0.347 ± 0.0413 µM
[5]; [8]
  Ki: 0.413 ± 0.00655 µM
